Patent US20220296536A1, “PAIN MANAGEMENT METHODOLOGY” (priority 2019, published 2022)
Where two headings read alike, the source gives them in different places.

Legend:
pain in a patient [1] = test: earlier pharmaceutical treatment of Patient A's pain; assay type: in vivo, human; conditions: terminal prostate cancer, before use of the method
Description: Patient A was a person having terminal prostate cancer. Patient A was suffering a high level of pain, for which pharmaceutical treatment, even morphine, had become ineffective.

pain in a patient [2] = system: pain in a patient
Protocol: In each of the examples, below, the method of the invention was used: the patient was aurally isolated in a quiet room, being the waiting room or vestibule to an operating theatre with only the deliverer present during the aural isolation period. The patient was exposed to the repetitive, positive message delivered orally by the deliverer. The chosen period was between 20 and 30 minutes. The deliverer repeated the message constantly during the chosen period. The message was: ‘When I wake up, I will have no pain’.
At the conclusion of the chosen period, the patient was administered propofol and became unconscious.

[3] = Example 5, Patient B, hip replacement

SMILES	effect of pharmaceutical treatment on high level of pain (pain in a patient [1])	pain after surgery (pain in a patient [2]; Example 1, Patient A, terminal prostate cancer, surgery for incontinence problem, from regaining consciousness until three weeks later)	pain (pain in a patient [2]; Example 2, Patient B, bleeding on the brain, skull drilled to drain blood)	pain post-surgery (pain in a patient [2]; Example 3, Patient B, cataract surgery)	post-operative pain (pain in a patient [2]; Example 4, Patient B, radical endoscopic sinus surgery)	pain post-surgery (pain in a patient [2]; [3])	recovery (pain in a patient [2]; [3])	time to being ambulatory (pain in a patient [2]; Example 5, Patient B, hip replacement, 7 days bed rest normally expected)	pain after surgery (pain in a patient [2]; Example 6, Patient B, painful infection within left shoulder, surgery)	pain post-surgery (pain in a patient [2]; Example 7, Patient B, osteomyelitis in right hip, stripping of veins and skin graft)	pain post-surgery (pain in a patient [2]; Example 8, Patient B, open-heart surgery to replace aortic valve, three surgeries)	pain post-surgery (pain in a patient [2]; Example 9, Patient C, hip replacement)	pain post-surgery (pain in a patient [2]; Example 10, Patient D, radical hysterectomy)	need for pharmaceutical pain relief after use of the method (pain in a patient [2]; all patients of Examples 1-10, propofol given after 20-30 min aural isolation with message)	recovery from surgery (pain in a patient [2]; all patients of the examples, when surgery was used)
CN1CC[C@]23c4c5ccc(O)c4O[C@H]2[C@@H](O)C=C[C@H]3[C@H]1C5 [morphine]	ineffective														
CC(C)c1cccc(C(C)C)c1O [propofol, 2,6-diisopropylphenol]		free of pain	experienced no pain	experienced no pain post-surgery	experienced no post-operative pain	no pain post-surgery	accelerated recovery	ambulatory within one hour	pain-free	no pain post-surgery	no pain post-surgery each time	no pain post-surgery	experienced no pain post-surgery	None of the patients in the examples below required pharmaceutical pain relief	All experienced accelerated recovery from surgery
